Data published in article PMC11274883, “Anticancer Effect of Pt^[sequence], Pt^II5MESS, Pt^II56MESS and Their Platinum(IV)-Dihydroxy Derivatives against Triple-Negative Breast Cancer and Cisplatin-Resistant Colorectal Cancer” (Cancers, 2024).

How the values were obtained:
Format in all cases: cell-based
MDA−MB−231 3D networks = assay: 3D bioprinted culture cytotoxicity (WST-1); settings: 72 h, mean ± SEM
Description: To evaluate the cytotoxic effect of platinum(II) and (IV) complexes in 3D cell culture, MDA−MB−231 or HT29 cells were used to bioprint networks or spheroids with the non-contact drop-on-demand 3D RASTRUM bioprinter (Inventia Life Science, Alexandria, NSW, Australia). The 3D cultures use two constituents: bioink and activator. Cell pellets (2 × 10^6 cells) were resuspended in an activator reagent which forms an instant gel after its addition to the bioink by the bioprinter. The 3D large plug cell model with polyethylene glycol bioinks formulated to mimic the properties of in vivo tissue were chosen as follows. Matrix Px02.31 (activator F177 and bioink F242 with RGD: Fibronectin) was used for MDA−MB−231 3D embedded networks, Px02.00 (activator F177 and bioink F119 without RGD additives, Table S1) was used for MDA−MB−231 spheroids and matrix #Px02.09 (activator F177 and bioink F236 with adhesion peptides including, RGD: Fibronectin, and GFOGER: collagen type I to recapitulate rich in vivo tissue extracellular environments) was used for HT29 spheroids (Inventia Life Science) (Table S1). Each cell line was printed at 10,000 cells/well and loaded with the bioink fluids into the selected printer cartridge. After the automated priming of all fluids into the printer nozzles, each cell line was individually printed on tissue culture plates (Nunc^TM MicroWell^TM 96-Well, Nunclon Delta-Treated, Flat-Bottom Microplate, ThermoFisher #167008), with RASTRUM creating the 3D Large Plug across the 96-well plate. Following completion of the print run, 200 μL DMEM culture medium was added to each well using multichannel pipettes. The plate was then incubated for 7 days (humidified incubator with 5% CO2 at 37 °C) for compact and homogenous spheroid formation before the cytotoxicity assay. When the spheroids developed, post-7-day incubation, media was removed and replaced with 100 µL DMEM. […] Cytotoxicity was then assessed using the WST-1 assay as previously described in Section 2.3.

MDA−MB−231 = assay: WST-1 cytotoxicity, 72 h; settings: for Selective cytotoxicity index (SCI): IC50 MCF10A/IC50 MDA−MB−231; for potency relative to cisplatin / IC50: MDA−MB−231, 72 h; for IC50: mean ± SEM
Method: (§1) Cells were seeded in 96-well flat-bottom culture plates at a concentration of 1000 cells per well. […] After 72 h, the medium was removed and replaced with new medium. The cell viability reagent WST-1 (10 µL, Roche Diagnostics, Indianapolis, IN, USA) was added to each well. After an hour, the absorbance was measured at 450 nm using a versatile microplate reader (Bio-strategy, Campbellfield, VIC, Australia). Three separate experiments were performed, each with n = 3 replicates. GraphPad prism 10 was used to calculate apparent IC50 values using the nonlinear regression model Y = Bottom + (Top-Bottom)/(1 + 10^(X-LogIC50)) where Top and bottom are plateaus in the y-axis (% survival).

HT29 = assay: WST-1 cytotoxicity, 72 h; settings: for potency relative to cisplatin / IC50: HT29, 72 h; for IC50: mean ± SEM; for Selective cytotoxicity index (SCI): IC50 MCF10A/IC50 HT29
Method: as §1

A2780 = assay: WST-1 cytotoxicity, 72 h; settings: for potency relative to cisplatin / IC50: A2780, 72 h; for IC50: mean ± SEM; for Selective cytotoxicity index (SCI): IC50 MCF10A/IC50 A2780
Method: as §1

ADDP = assay: WST-1 cytotoxicity, 72 h; settings: for potency relative to cisplatin / IC50: ADDP, 72 h; for IC50: mean ± SEM; for Selective cytotoxicity index (SCI): IC50 MCF10A/IC50 ADDP
Method: as §1

MCF−7 = assay: WST-1 cytotoxicity, 72 h; settings: for Selective cytotoxicity index (SCI): IC50 MCF10A/IC50 MCF−7; for potency relative to cisplatin / IC50: MCF−7, 72 h; for IC50: mean ± SEM
Method: as §1

HT29 cells = assay: Cellular localisation of Pt (fractionation, ICP-MS); settings: HT29, 3 µM, 24 h
Method: (§2) MDA−MB−231 and HT29 cells were seeded at a final concentration of 10^6 cells/well in 6-well plates and incubated overnight. Cells were then treated with 3 µM of either Pt^II or Pt^IV complexes for 24 h. The media was next removed, and cells were washed three times with ice-cold PBS. Then the cells were trypsinised. The isolation of individual fractions was carried out using the Fraction-PREP Cell Fractionation kit (ab288085, Abcam, Cambridge, MA, USA). The cell pellet was resuspended in ice-cold PBS and moved to Eppendorf tubes to spin for 5 min at 700× g and supernatant was removed. The pellet was then resuspended in 400 µL of cytosol extraction buffer mix and incubated for 20 min on ice. Next, samples were centrifuged at 700× g for 10 min and the supernatant was collected as the cytosolic fraction. The pellet was then resuspended in 400 µL of ice-cold membrane A extraction buffer mix and vortexed for 10 s, after which membrane B extraction buffer mix was added and incubated on ice for 1 min. The sample was then vortexed and centrifuged for 5 min at 1000× g. […] The pellet was then resuspended in 200 µL of ice-cold nuclear extraction buffer, vortexed for 20 s and then incubated on ice for 40 min with constant vortexing every 10 min. The samples were then centrifuged for 10 min at maximum speed. […] Platinum cell localisation was then measured via ICP-MS, as described in Section 2.5.

MDA−MB−231 cells = assay: as above; settings: MDA−MB−231, 3 µM, 24 h
Method: as §2

Row | SMILES | IC50 (MDA−MB−231 3D networks) | Selective cytotoxicity index (SCI) (MDA−MB−231) | potency relative to cisplatin (MDA−MB−231) | IC50 (MDA−MB−231) | potency relative to cisplatin (HT29) | IC50 (HT29) | Selective cytotoxicity index (SCI) (HT29) | potency relative to cisplatin (A2780) | IC50 (A2780) | Selective cytotoxicity index (SCI) (A2780) | potency relative to cisplatin (ADDP) | IC50 (ADDP) | Selective cytotoxicity index (SCI) (ADDP) | Selective cytotoxicity index (SCI) (MCF−7) | potency relative to cisplatin (MCF−7) | IC50 (MCF−7) | subcellular fraction with main platinum accumulation (HT29 cells) | subcellular fraction with main platinum accumulation (MDA−MB−231 cells)
1 | Cc1cc2cccnc2c2ncccc12.N[C@H]1CCCC[C@@H]1N.O=[N+]([O-])[O-].O=[N+]([O-])[O-].[OH][Pt+2][OH] [Pt^IV5MESS(OH)2, [Pt(5-methyl-1,10-phenanthroline)(1S,2S-diaminocyclohexane)(dihydroxy)](NO3)2] | 3820 ± 1420 nM | 4.38 | 5 fold | 2790 ± 1390 nM | 21 fold | 3640 ± 1450 nM | 3.36 | 10 fold | 2140 ± 1380 nM | 5.71 | 15 fold | 7710 ± 1310 nM | 1.58 | 5.66 | 15 fold | 2160 ± 1530 nM | – | –
2 | N[C@H]1CCCC[C@@H]1N.O=[N+]([O-])[O-].O=[N+]([O-])[O-].[Pt+2].c1cnc2c(c1)ccc1cccnc12 [[Pt(1,10-phenanthroline)(1S,2S-diaminocyclohexane)](NO3)2] | 2840 ± 1560 nM | 3.45 | 13 fold | 1010 ± 1360 nM | 102 fold | 760 ± 1470 nM | 4.59 | 19 fold | 1110 ± 1880 nM | 3.14 | 44 fold | 2550 ± 1480 nM | 1.37 | 1.91 | 18 fold | 1830 ± 2120 nM | – | –
3 | Cc1c(C)c2cccnc2c2ncccc12.N[C@H]1CCCC[C@@H]1N.O=[N+]([O-])[O-].O=[N+]([O-])[O-].[OH][Pt+2][OH] [Pt^IV56MESS(OH)2, [Pt(5,6-dimethyl-1,10-phenanthroline)(1S,2S-diaminocyclohexane)(dihydroxy)](NO3)2] | 1400 ± 1340 nM | 6.92 | 18 fold | 710 ± 1220 nM | 62 fold | 1250 ± 1380 nM | 3.93 | 13 fold | 1690 ± 1360 nM | 2.90 | 27 fold | 4170 ± 1550 nM | 1.18 | 3.61 | 24 fold | 1360 ± 1470 nM | – | –
4 | Cc1c(C)c2cccnc2c2ncccc12.N[C@H]1CCCC[C@@H]1N.O=[N+]([O-])[O-].O=[N+]([O-])[O-].[Pt+2] [Pt^II56MESS, [Pt(5,6-dimethyl-1,10-phenanthroline)(1S,2S-diaminocyclohexane)](NO3)2] | 980 ± 1210 nM | 2.93 | 93 fold | 140 nM | 432 fold | 180 nM | 2.28 | 113 fold | 190 nM | 2.16 | 147 fold | 760 ± 1270 nM | 0.54 | 0.73 | 59 fold | 560 nM | – | –
5 | N[C@H]1CCCC[C@@H]1N.O=[N+]([O-])[O-].O=[N+]([O-])[O-].[OH-].[OH-].[Pt+4].c1cnc2c(c1)ccc1cccnc12 [[Pt(1,10-phenanthroline)(1S,2S-diaminocyclohexane)(dihydroxy)](NO3)2] | 6180 ± 1620 nM | 6.13 | 4 fold | 3340 ± 1370 nM | 17 fold | 4480 ± 1770 nM | 4.57 | 3 fold | 6490 ± 1230 nM | 3.15 | 8 fold | 13600 ± 1570 nM | 1.49 | 2.18 | 3 fold | 9390 ± 1260 nM | – | –
6 | N.N.[Cl][Pt][Cl] [Cisplatin, cisplatin] | 16000 ± 1490 nM | – | – | 13100 ± 1360 nM | – | 77800 ± 1970 nM | – | – | 21500 ± 1550 nM | – | – | 112000 ± 2020 nM | – | – | – | 33000 ± 1350 nM | membrane/particulate fraction | membrane/particulate fraction
7 | Cc1cc2cccnc2c2ncccc12.N[C@H]1CCCC[C@@H]1N.O=[N+]([O-])[O-].O=[N+]([O-])[O-].[Pt+2] [Pt^II5MESS, [Pt(5-methyl-1,10-phenanthroline)(1S,2S-diaminocyclohexane)](NO3)2] | 2040 ± 1310 nM | 2.27 | 25 fold | 520 nM | 149 fold | 550 ± 1420 nM | 2.15 | 33 fold | 650 ± 1710 nM | 1.82 | 85 fold | 1320 ± 1330 nM | 0.89 | 1.37 | 38 fold | 860 ± 1670 nM | – | –
